Data as given in the supplement of paper PMC10307832.

What was measured:
Assay in all cases: relative viability (nuclei count vs DMSO), 5 days (fraction); higher = more cells survive
CAP-232 + Bortezomib = compound: C[C@H]([C@@H](C(=O)N)NC(=O)[C@@H]1CSSC[C@@H](C(=O)N[C@H](C(=O)N[C@@H](C(=O)N[C@H](C(=O)N1)CCCCN)CC2=CNC3=CC=CC=C32)CC4=CC=C(C=C4)O)NC(=O)[C@@H](CC5=CC=CC=C5)N)O [CAP-232] + CC(C)C[C@H](NC(=O)[C@H](Cc1ccccc1)NC(=O)c1cnccn1)B(O)O [Bortezomib] (partner 0.002 µM)
Summary of the method: (§1)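 Values are medians from duplicate plates. Each reflects relative viability, defined as the nuclei count of treated wells over that of vehicle wells. Lung cancer cell lines in 1536-well plates were pin-tool dosed one day after seeding with one drug alone or with a fixed anchor-drug dose plus five library-drug doses (not always all listed) in √10 steps, then fixed, stained and imaged at 4× after 5 days.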

CAP-232 + Pictilisib = compound: C[C@H]([C@@H](C(=O)N)NC(=O)[C@@H]1CSSC[C@@H](C(=O)N[C@H](C(=O)N[C@@H](C(=O)N[C@H](C(=O)N1)CCCCN)CC2=CNC3=CC=CC=C32)CC4=CC=C(C=C4)O)NC(=O)[C@@H](CC5=CC=CC=C5)N)O [CAP-232] + CS(=O)(=O)N1CCN(Cc2cc3nc(-c4cccc5[nH]ncc45)nc(N4CCOCC4)c3s2)CC1 [Pictilisib] (partner 1 µM)
Summary of the method: as §1

CAP-232 + Crizotinib = compound: C[C@H]([C@@H](C(=O)N)NC(=O)[C@@H]1CSSC[C@@H](C(=O)N[C@H](C(=O)N[C@@H](C(=O)N[C@H](C(=O)N1)CCCCN)CC2=CNC3=CC=CC=C32)CC4=CC=C(C=C4)O)NC(=O)[C@@H](CC5=CC=CC=C5)N)O [CAP-232] + C[C@@H](Oc1cc(-c2cnn(C3CCNCC3)c2)cnc1N)c1c(Cl)ccc(F)c1Cl [Crizotinib] (partner 1 µM)
Summary of the method: as §1

CAP-232 + Linsitinib = compound: C[C@H]([C@@H](C(=O)N)NC(=O)[C@@H]1CSSC[C@@H](C(=O)N[C@H](C(=O)N[C@@H](C(=O)N[C@H](C(=O)N1)CCCCN)CC2=CNC3=CC=CC=C32)CC4=CC=C(C=C4)O)NC(=O)[C@@H](CC5=CC=CC=C5)N)O [CAP-232] + C[C@]1(O)C[C@@H](c2nc(-c3ccc4ccc(-c5ccccc5)nc4c3)c3c(N)nccn32)C1 [Linsitinib] (partner 1 µM)
Summary of the method: as §1

CAP-232 + Alpelisib = compound: C[C@H]([C@@H](C(=O)N)NC(=O)[C@@H]1CSSC[C@@H](C(=O)N[C@H](C(=O)N[C@@H](C(=O)N[C@H](C(=O)N1)CCCCN)CC2=CNC3=CC=CC=C32)CC4=CC=C(C=C4)O)NC(=O)[C@@H](CC5=CC=CC=C5)N)O [CAP-232] + Cc1nc(NC(=O)N2CCC[C@H]2C(N)=O)sc1-c1ccnc(C(C)(C)C(F)(F)F)c1 [Alpelisib] (partner 2 µM)
Summary of the method: as §1

Cell Line	relative viability (CAP-232 + Bortezomib; first compound 0.4 µM)	relative viability (CAP-232 + Bortezomib; first compound 1.265 µM)	relative viability (CAP-232 + Bortezomib; first compound 4 µM)	relative viability (CAP-232 + Bortezomib; first compound 12.65 µM)	relative viability (CAP-232 + Pictilisib; first compound 0.4 µM)	relative viability (CAP-232 + Pictilisib; first compound 1.265 µM)	relative viability (CAP-232 + Pictilisib; first compound 4 µM)	relative viability (CAP-232 + Pictilisib; first compound 12.65 µM)	relative viability (CAP-232 + Crizotinib; first compound 0.4 µM)	relative viability (CAP-232 + Crizotinib; first compound 1.265 µM)	relative viability (CAP-232 + Crizotinib; first compound 4 µM)	relative viability (CAP-232 + Crizotinib; first compound 12.65 µM)	relative viability (CAP-232 + Linsitinib; first compound 0.4 µM)	relative viability (CAP-232 + Linsitinib; first compound 1.265 µM)	relative viability (CAP-232 + Linsitinib; first compound 4 µM)	relative viability (CAP-232 + Linsitinib; first compound 12.65 µM)	relative viability (CAP-232 + Alpelisib; first compound 0.4 µM)	relative viability (CAP-232 + Alpelisib; first compound 1.265 µM)	relative viability (CAP-232 + Alpelisib; first compound 4 µM)	relative viability (CAP-232 + Alpelisib; first compound 12.65 µM)
NCI-H838	0.916	0.643	0.86	0.544	0.439	0.357	0.475	0.345	1.03	0.804	0.981	0.65	1.09	1.01	1.08	0.595	1.08	0.944	1.12	0.644
NCI-H1355	1.27	1.22	1.39	1.24	0.365	0.464	0.497	0.521	1.02	1.01	1.22	1.27	0.776	0.901	1.02	0.754	0.845	0.842	0.963	0.864
NCI-H1437	0.604	0.584	0.598	0.521	0.38	0.426	0.515	0.279	1.11	0.927	1.05	0.81	1.04	1.03	1.17	0.664	0.901	1.04	1.05	0.768
NCI-H1563	0.836	0.735	0.957	0.687	0.677	0.626	0.689	0.486	0.965	0.911	0.835	0.777	1.36	1.12	1.21	0.829	0.92	0.955	0.908	0.626
NCI-H1651	1.01	0.939	1.02	0.953	0.666	0.685	0.624	0.368	0.861	0.856	0.918	0.904	1.02	0.937	1.01	0.655	1.01	0.841	1.08	0.728
NCI-H1666	0.759		0.952	0.393	0.44		0.356	0.248	1.03		0.829	0.852	0.721		0.85	0.619	0.991		1.05	0.816
NCI-H1703	0.251	0.333	0.226	0.164	0.245	0.224	0.269	0.261	0.788	0.844	0.74	0.695	0.489	0.642	0.933	0.873	0.34	0.378	0.344	0.351
NCI-H1734	0.919	0.902	1.06	0.74	0.393	0.44	0.455	0.462	0.674	0.577	0.758	0.65	0.848	0.917	0.951	0.766	0.611	0.662	0.755	0.702
NCI-H1755	1.05	0.912	1.15	0.887	0.379	0.402	0.452	0.415	0.988	0.778	0.976	0.747	1.07	0.975	1.08	0.941	0.984	0.91	1.1	0.763
NCI-H1792	1.13	1.01	1.27	0.845	0.26	0.323	0.3	0.204	1.37	1.02	0.834	0.722	0.493	0.56	0.654	0.285	0.825	0.823	0.819	0.399
NCI-H1915	1.1	1.05	1.06	0.95	0.878	0.852	1.01	0.914	1.04	0.915	1.04	0.961	1.08	1.1	1.08	0.986	1.05	1.02	1.04	1.06
NCI-H1975	0.336	0.351	0.416	0.255	0.262	0.261	0.313	0.191	1.11	1.07	1.08	0.892	1.03	1.02	1.07	0.65	0.734	0.579	0.704	0.434
NCI-H1993	1.26	1.07	0.966	0.896	0.887	0.935	0.977	0.768	0.884	0.95	0.885	0.835	0.778	0.758	0.788	0.7	0.605	0.674	0.719	0.633
NCI-H2009	1.09	0.974	0.97	0.843	0.711	0.728	0.88	0.478	1.11	1.01	1.05	1.09	1.2	1.18	1.22	1.09	1.17	1.08	1.13	1.03
